Type in all cases: functional, cell-based
One assay deals with A549. Briefly: Cytotoxicity against human A549 cells after 48 hrs by MTT assay. To be noted: A549, 48 h. In general terms: Formazan colour is commonly taken as a measure of viable cells.
Another assay deals with MDA-MB-231. Kind of assay: Cytotoxicity against human MDA-MB-231 cells after 48 hrs by MTT assay. To be noted: MDA-MB-231, 48 h.
The subject of the next assay is HepG2. Briefly: Cytotoxicity against human HepG2 cells after 48 hrs by MTT assay. To be noted: HepG2, 48 h.
Another assay concerns HeLa. Briefly: Cytotoxicity against human HeLa cells after 48 hrs by MTT assay.

This note sets out measurements from ChEMBL document CHEMBL1157742, “Oxepinochromenones, furochromenone, and their putative precursors from the endolichenic fungus Coniochaeta sp” (J Nat Prod, 2010).

As a reminder, the IC50 is the concentration that inhibits the measured activity by half. For the compound `COC(=O)[C@]12Oc3cc(C)cc(O)c3C(=O)C1=C(O)OC=C[C@H]2O` [CONIOXEPINOL D], the IC50 with A549 was 40.9 µM; with MDA-MB-231 it was 41.4 µM; in the assay on HepG2 it was more than 120 µM; in the assay with HeLa, more than 120 µM.

`O=c1[nH]cc(F)c(=O)[nH]1` [FLUOROURACIL] showed a concentration for half-maximal inhibition (IC50) in the assay on HeLa of 10 µM.

On to `COC(=O)[C@@H]1c2c(oc3cc(C)cc(O)c3c2=O)OC=C[C@@H]1O` [CONIOXEPINOL A], for which the IC50 with A549 was more than 120 µM; in the assay on MDA-MB-231, more than 120 µM; with HepG2, more than 120 µM; in the assay on HeLa, 104 µM.

On to `COC(=O)[C@@]1(O)c2c(oc3cc(C)cc(O)c3c2=O)OC=C[C@@H]1O` [CONIOXEPINOL C], for which the IC50 with A549 was 83.6 µM; in the assay with MDA-MB-231, 112 µM; in the assay on HepG2, more than 120 µM; in the assay with HeLa, more than 120 µM.

Take `COC(=O)[C@@]1(O)c2c(oc3cc(C)cc(O)c3c2=O)O[C@@H]1CCO` [CONIOFUROL A]: the IC50 with A549, with MDA-MB-231, in the assay with HepG2 and in the assay with HeLa was more than 120 µM each time.

Take `COC(=O)[C@@H]1c2c(oc3cc(CO)cc(O)c3c2=O)OC=C[C@@H]1O` [CONIOXEPINOL B]: the IC50 in the assay on A549 is more than 120 µM; in the assay with MDA-MB-231, more than 120 µM; in the assay on HepG2, more than 120 µM; in the assay with HeLa, 36.2 µM.
